SMILES strings stand for the structures.

A short description of the series: amide bond formation (head-to-tail lactamisation): terminal amine + amino acid COOH, EDC.HCl 2.2 equiv, DMAP 0.2 equiv, substrate (HCl salt) and reagent solutions each added dropwise over 1 h. The conditions noted are these: 14-membered ring, CH2Cl2, 4.0 mM, 2 steps.

For the compound `CCN1CCN(CC)C(=O)[C@@H](C)NC(=O)[C@@H](C)NC(=O)c2nc[nH]c2C1=O`, the ring closure, yield over several steps (from CCN(CCN(CC)C(=O)[C@@H](C)N)C(=O)c1[nH]cnc1C(=O)N[C@H](C)C(=O)O, 14.0 h) is 9%.
Consider `C[C@H]1NC(=O)c2nc[nH]c2C(=O)N(C)CCN(C)C(=O)[C@@H](C)NC1=O`, for which the ring closure, yield over several steps (from C[C@@H](N)C(=O)N(C)CCN(C)C(=O)c1[nH]cnc1C(=O)N[C@H](C)C(=O)O, 14.0 h) was found to be 0%.
Take `CCN1CCN(CC)C(=O)[C@H](C)NC(=O)[C@H](C)NC(=O)c2nc[nH]c2C1=O` [H-Ala-[N(Et)CH2CH2N(Et)]-CO-(imidazole-4,5-diyl)-CO-Ala-OH]: the ring closure, yield over several steps (from CCN(CCN(CC)C(=O)[C@H](C)N)C(=O)c1[nH]cnc1C(=O)N[C@@H](C)C(=O)O, 14.0 h) stood at 7%.
Take `CCN1CCN(CC)C(=O)[C@H](C)NC(=O)[C@@H](C)NC(=O)c2nc[nH]c2C1=O` [H-Ala-[N(Et)CH2CH2N(Et)]-CO-(imidazole-4,5-diyl)-CO-D-Ala-OH]: under “from CCN(CCN(CC)C(=O)[C@H](C)N)C(=O)c1[nH]cnc1C(=O)N[C@H](C)C(=O)O, 14.0 h”, the ring closure, yield over several steps is 8%.
In the case of `CCN1CCN(CC)C(=O)[C@H](C)NC(=O)CNC(=O)c2nc[nH]c2C1=O` [H-Ala-[N(Et)CH2CH2N(Et)]-CO-(imidazole-4,5-diyl)-CO-Gly-OH], under “from CCN(CCN(CC)C(=O)[C@H](C)N)C(=O)c1[nH]cnc1C(=O)NCC(=O)O, 14.0 h”, the ring closure, yield over several steps turned out to be 0%.
For the compound `C[C@@H]1NC(=O)c2nc[nH]c2C(=O)N(C)CCN(C)C(=O)[C@H](C)NC1=O` [H-Ala-[N(Me)CH2CH2N(Me)]-CO-(imidazole-4,5-diyl)-CO-Ala-OH], the ring closure, yield over several steps (from C[C@H](N)C(=O)N(C)CCN(C)C(=O)c1[nH]cnc1C(=O)N[C@@H](C)C(=O)O, 14.0 h) amounted to 32%.
For the compound `C[C@@H]1NC(=O)[C@@H](C)NC(=O)c2nc[nH]c2C(=O)N(C)CCN(C)C1=O` [H-Ala-[N(Me)CH2CH2N(Me)]-CO-(imidazole-4,5-diyl)-CO-D-Ala-OH], under “from C[C@H](N)C(=O)N(C)CCN(C)C(=O)c1[nH]cnc1C(=O)N[C@H](C)C(=O)O, 14.0 h”, the ring closure, yield over several steps came to 0%.
For the compound `C[C@@H]1NC(=O)CNC(=O)c2nc[nH]c2C(=O)N(C)CCN(C)C1=O` [H-Ala-[N(Me)CH2CH2N(Me)]-CO-(imidazole-4,5-diyl)-CO-Gly-OH], the ring closure, yield over several steps (from C[C@H](N)C(=O)N(C)CCN(C)C(=O)c1[nH]cnc1C(=O)NCC(=O)O, 14.0 h) is 0%.
Regarding `CC(C)C[C@@H]1NC(=O)c2nc[nH]c2C(=O)N(C)CCN(C)C(=O)[C@H](C)NC1=O` [H-Ala-[N(Me)CH2CH2N(Me)]-CO-(imidazole-4,5-diyl)-CO-Leu-OH], for the setting “from CC(C)C[C@H](NC(=O)c1nc[nH]c1C(=O)N(C)CCN(C)C(=O)[C@H](C)N)C(=O)O, 14.0 h”, the ring closure, yield over several steps turned out to be 12%.
Turning to `CCN1CCN(CC)C(=O)[C@@H](C)NC(=O)[C@H](C)NC(=O)c2nc[nH]c2C1=O` [H-D-Ala-[N(Et)CH2CH2N(Et)]-CO-(imidazole-4,5-diyl)-CO-Ala-OH], the ring closure, yield over several steps (from CCN(CCN(CC)C(=O)[C@@H](C)N)C(=O)c1[nH]cnc1C(=O)N[C@@H](C)C(=O)O, 14.0 h) is 10%.
For the compound `CCN1CCN(CC)C(=O)[C@@H](C)NC(=O)CNC(=O)c2nc[nH]c2C1=O` [H-D-Ala-[N(Et)CH2CH2N(Et)]-CO-(imidazole-4,5-diyl)-CO-Gly-OH], the ring closure, yield over several steps (from CCN(CCN(CC)C(=O)[C@@H](C)N)C(=O)c1[nH]cnc1C(=O)NCC(=O)O, 14.0 h) amounted to 3%.
For the compound `C[C@@H]1NC(=O)c2nc[nH]c2C(=O)N(C)CCN(C)C(=O)[C@@H](C)NC1=O` [H-D-Ala-[N(Me)CH2CH2N(Me)]-CO-(imidazole-4,5-diyl)-CO-Ala-OH], under “from C[C@H](NC(=O)c1nc[nH]c1C(=O)N(C)CCN(C)C(=O)[C@@H](C)N)C(=O)O, 14.0 h”, the ring closure, yield over several steps was 22%.
`C[C@H]1NC(=O)CNC(=O)c2nc[nH]c2C(=O)N(C)CCN(C)C1=O` [H-D-Ala-[N(Me)CH2CH2N(Me)]-CO-(imidazole-4,5-diyl)-CO-Gly-OH]: the ring closure, yield over several steps (from C[C@@H](N)C(=O)N(C)CCN(C)C(=O)c1[nH]cnc1C(=O)NCC(=O)O, 14.0 h) was found to be 0%.
On to `CC(C)C[C@@H]1NC(=O)c2nc[nH]c2C(=O)N(C)CCN(C)C(=O)[C@@H](C)NC1=O` [H-D-Ala-[N(Me)CH2CH2N(Me)]-CO-(imidazole-4,5-diyl)-CO-Leu-OH], for which, where the note is “from CC(C)C[C@H](NC(=O)c1nc[nH]c1C(=O)N(C)CCN(C)C(=O)[C@@H](C)N)C(=O)O, 14.0 h”, the ring closure, yield over several steps amounted to 11%.
For `CCN1CCN(CC)C(=O)c2[nH]cnc2C(=O)N[C@@H](C)C(=O)NCC1=O` [H-Gly-[N(Et)CH2CH2N(Et)]-CO-(imidazole-4,5-diyl)-CO-Ala-OH], the ring closure, yield over several steps (from CCN(CCN(CC)C(=O)c1[nH]cnc1C(=O)N[C@@H](C)C(=O)O)C(=O)CN, 14.0 h) was determined as 9%.
Regarding `CCN1CCN(CC)C(=O)c2[nH]cnc2C(=O)N[C@H](C)C(=O)NCC1=O` [H-Gly-[N(Et)CH2CH2N(Et)]-CO-(imidazole-4,5-diyl)-CO-D-Ala-OH], the ring closure, yield over several steps (from CCN(CCN(CC)C(=O)c1[nH]cnc1C(=O)N[C@H](C)C(=O)O)C(=O)CN, 14.0 h) was 8%.
Regarding `CCN1CCN(CC)C(=O)c2[nH]cnc2C(=O)NCC(=O)NCC1=O` [H-Gly-[N(Et)CH2CH2N(Et)]-CO-(imidazole-4,5-diyl)-CO-Gly-OH], for the setting “from CCN(CCN(CC)C(=O)c1[nH]cnc1C(=O)NCC(=O)O)C(=O)CN, 14.0 h”, the ring closure, yield over several steps was determined as 0%.
On to `C[C@@H]1NC(=O)c2nc[nH]c2C(=O)N(C)CCN(C)C(=O)CNC1=O` [H-Gly-[N(Me)CH2CH2N(Me)]-CO-(imidazole-4,5-diyl)-CO-Ala-OH], for which the ring closure, yield over several steps (from C[C@H](NC(=O)c1nc[nH]c1C(=O)N(C)CCN(C)C(=O)CN)C(=O)O, 21.0 h) is 7%.
As to `C[C@H]1NC(=O)c2nc[nH]c2C(=O)N(C)CCN(C)C(=O)CNC1=O` [H-Gly-[N(Me)CH2CH2N(Me)]-CO-(imidazole-4,5-diyl)-CO-D-Ala-OH], under “from C[C@@H](NC(=O)c1nc[nH]c1C(=O)N(C)CCN(C)C(=O)CN)C(=O)O, 18.0 h”, the ring closure, yield over several steps amounted to 17%.
Take `CN1CCN(C)C(=O)c2[nH]cnc2C(=O)NCC(=O)NCC1=O` [H-Gly-[N(Me)CH2CH2N(Me)]-CO-(imidazole-4,5-diyl)-CO-Gly-OH]: under “from CN(CCN(C)C(=O)c1[nH]cnc1C(=O)NCC(=O)O)C(=O)CN, 10.5 h”, the ring closure, yield over several steps amounted to 7%.
With `CC(C)C[C@@H]1NC(=O)c2nc[nH]c2C(=O)N(C)CCN(C)C(=O)CNC1=O` [H-Gly-[N(Me)CH2CH2N(Me)]-CO-(imidazole-4,5-diyl)-CO-Leu-OH], for the setting “from CC(C)C[C@H](NC(=O)c1nc[nH]c1C(=O)N(C)CCN(C)C(=O)CN)C(=O)O, 17.5 h”, the ring closure, yield over several steps amounted to 37%.
As to `CCN1CCN(CC)C(=O)[C@H](CC(C)C)NC(=O)[C@H](C)NC(=O)c2nc[nH]c2C1=O` [H-Leu-[N(Et)CH2CH2N(Et)]-CO-(imidazole-4,5-diyl)-CO-Ala-OH], the ring closure, yield over several steps (from CCN(CCN(CC)C(=O)[C@@H](N)CC(C)C)C(=O)c1[nH]cnc1C(=O)N[C@@H](C)C(=O)O, 14.0 h) was 11%.
As for `CCN1CCN(CC)C(=O)[C@H](CC(C)C)NC(=O)[C@@H](C)NC(=O)c2nc[nH]c2C1=O` [H-Leu-[N(Et)CH2CH2N(Et)]-CO-(imidazole-4,5-diyl)-CO-D-Ala-OH], the ring closure, yield over several steps (from CCN(CCN(CC)C(=O)[C@@H](N)CC(C)C)C(=O)c1[nH]cnc1C(=O)N[C@H](C)C(=O)O, 14.0 h) was determined as 0%.
As for `CCN1CCN(CC)C(=O)[C@H](CC(C)C)NC(=O)CNC(=O)c2nc[nH]c2C1=O` [H-Leu-[N(Et)CH2CH2N(Et)]-CO-(imidazole-4,5-diyl)-CO-Gly-OH], the ring closure, yield over several steps (from CCN(CCN(CC)C(=O)[C@@H](N)CC(C)C)C(=O)c1[nH]cnc1C(=O)NCC(=O)O, 14.0 h) was 8%.
Take `CCN1CCN(CC)C(=O)[C@H](CC(C)C)NC(=O)[C@H](CC(C)C)NC(=O)c2nc[nH]c2C1=O` [H-Leu-[N(Et)CH2CH2N(Et)]-CO-(imidazole-4,5-diyl)-CO-Leu-OH]: the ring closure, yield over several steps (from CCN(CCN(CC)C(=O)[C@@H](N)CC(C)C)C(=O)c1[nH]cnc1C(=O)N[C@@H](CC(C)C)C(=O)O, 14.0 h) came to 0%.
For `CC(C)C[C@@H]1NC(=O)[C@H](C)NC(=O)c2nc[nH]c2C(=O)N(C)CCN(C)C1=O` [H-Leu-[N(Me)CH2CH2N(Me)]-CO-(imidazole-4,5-diyl)-CO-Ala-OH], the ring closure, yield over several steps (from CC(C)C[C@H](N)C(=O)N(C)CCN(C)C(=O)c1[nH]cnc1C(=O)N[C@@H](C)C(=O)O, 14.0 h) is 14%.
With `CC(C)C[C@@H]1NC(=O)[C@@H](C)NC(=O)c2nc[nH]c2C(=O)N(C)CCN(C)C1=O` [H-Leu-[N(Me)CH2CH2N(Me)]-CO-(imidazole-4,5-diyl)-CO-D-Ala-OH], the ring closure, yield over several steps (from CC(C)C[C@H](N)C(=O)N(C)CCN(C)C(=O)c1[nH]cnc1C(=O)N[C@H](C)C(=O)O, 14.0 h) was 37%.
On to `CC(C)C[C@@H]1NC(=O)CNC(=O)c2nc[nH]c2C(=O)N(C)CCN(C)C1=O` [H-Leu-[N(Me)CH2CH2N(Me)]-CO-(imidazole-4,5-diyl)-CO-Gly-OH], for which, under “from CC(C)C[C@H](N)C(=O)N(C)CCN(C)C(=O)c1[nH]cnc1C(=O)NCC(=O)O, 14.0 h”, the ring closure, yield over several steps came out at 0%.

(Values after publication PMC6268944.)
